The source of these data is patent US10238747B2 (priority 2010, dated 2019).

Values joined by “and” are separate entries in the source; they are usually repeats but may differ in a detail not shown here. Equal entries are not always repeated.

For data set [1] the following is noted: 2-8° C.
For the next data set, the target named is CD4 (Homo sapiens, UniProt P01730). Particulars: T cell co-stimulator molecule; cited from earlier work.
The test system of the next data set is BALB/c and C57BL6 mice. Particulars: mouse, in vivo.
Another data set relates to Dendritic Cells. In kind it is cell-based, Balb/c mice.
A further data set deals with CIA model of RA. The note with it: mouse, in vivo; cited from earlier work.

For “(amino)-DGQEEKAGVVSTGLIGGG-(amide) (H-DGQEEKAGVVSTGLIGGG-NH2) [CEL-1000]”, the “stability of formulation (time extremely stable)” value in data set [1] is reported as “over 2 years”. In addition, the “binding to CD4” value in the data set with CD4 is reported as “shown to bind to CD4”.
“DLLKNGERIEKVEGGGGLFGAIAGFIEGG [J-HA2 core 1]”: in the data set with BALB/c and C57BL6 mice, the “primary response: antibody production (day 24 or 38) or cytokine responses (day 3, 10 and 24)” value is recorded as “very little response”.
The same measure, in the same setting: as for “DLLKNGERIEKVEGGGLKSTQNAIDEITNKVN [J-HA2 core 2]”, the entry is “very little response”.
Consider DLLKNGERIEKVEGGGNDATYQRTRALVRTG [J-NP], for which, in the data set with BALB/c and C57BL6 mice, the “serum IFN-y, secondary response (FIG. 2)” value is listed as “sustained levels”; the “serum IFN-γ response, normalized to adjuvant control (FIG. 1)” value is “higher amounts”; the “serum IL-10, secondary response (FIG. 2)” value was “sustained levels”; the “serum IL-12 p40p70, secondary response (FIG. 2)” value is given as “sustained levels”. Besides, in the data set with BALB/c and C57BL6 mice, the “serum IL-12p40 response, normalized to adjuvant control (FIG. 1)” value is “higher for C57BL6 mice”; the “serum IL-12p70, secondary response (FIG. 2)” value was “sustained levels”; the “serum MCP-1 response, normalized to adjuvant control (FIG. 1)” value was “higher amounts”.
In the case of “DLLKNGERIEKVEGGGSLLTEVETPIRNEWGCRCNDSSD [J-M2e]”, in the data set with BALB/c and C57BL6 mice, the “serum IFN-y, secondary response (FIG. 2)” value was “increase”; the “serum IFN-γ response, normalized to adjuvant control (FIG. 1)” value is listed as “higher amounts”; the “serum IL-10, secondary response (FIG. 2)” value is listed as “increase”; the “serum IL-12 p40p70, secondary response (FIG. 2)” value is “increase”. In the data set with BALB/c and C57BL6 mice, the “serum IL-12p40 response, normalized to adjuvant control (FIG. 1)” value is recorded as “higher for C57BL6 mice”; the “serum IL-12p70, secondary response (FIG. 2)” value is “increase”; the “serum MCP-1 response, normalized to adjuvant control (FIG. 1)” value was “higher amounts”.
As for “DLLKNGERIEKVEGGGTGGKPGIAGFKGEQGPKGEP [CEL-2000]”, the “IL-12p70 Conc., R&D Systems (IL-12p70), Avg” value with Dendritic Cells was 67.9 pg/mL and 35.4 pg/mL and 58.2 pg/mL. In addition, in the data set with CIA model of RA, the disease suppression entry is listed as “suppress disease over a 90 day period”; the “efficacy compared with Enbrel” value is “more effective than Enbrel”; the safety and tolerability result was “safe and well-tolerated”; the “serum IL-1 change” value is recorded as “reduced”. Besides, in the data set on CIA model of RA, the “serum IL-10 change” value was “increased”, the “serum IL-12p40 change” value is given as “decrease”, the “serum IL-12p70 change” value is reported as “increased” and the “serum MCP-1 change” value is “reduced”. Further, in the data set on CIA model of RA, the “serum TNF-α change” value is listed as “reduced”.
As to “DLLKNGERIEKVEGGGYSVHQRIDVKDTKEALEKIEEEQNKSKKKA [JH]”, in the data set on Dendritic Cells, the “TNF-a Conc., R&D Systems TNF-a, Avg” value is 905.7 pg/mL and 685.0 pg/mL and 830.9 pg/mL; the “TNF-a Conc., RayBio TNF-a, Avg” value is on record as 29.6 pg/mL.
Consider lipopolysaccharide [LPS], for which, in the data set with Dendritic Cells, the “IL-12p70 Conc., R&D Systems (IL-12p70), Avg” value is 57.0 pg/mL and 78.5 pg/mL and 62.5 pg/mL; the “TNF-a Conc., R&D Systems TNF-a, Avg” value was 5229.9 pg/mL and 3313.2 pg/mL and 3083.0 pg/mL; the “TNF-a Conc., RayBio TNF-a, Avg” value was 3206.0 pg/mL and 2142.3 pg/mL and 2028.6 pg/mL.
